From PMC6646794 (Biochimica et Biophysica Acta. Molecular Cell Research, 2019)
Read-outs that look alike come from different tables or passages of the source.

Key:
wild-type TRPM2 = assay: Whole cell patch-clamp, wild-type TRPM2 in HEK293 cells; assay type: cell-based, human; conditions: for whole cell current at 37 °C / whole cell current at room temperature: 200 nM free Ca2+, maximum current at +15 mV, median, 8–13 cells per condition; for effect of raising temperature to 37 °C on current: one-way ANOVA, Bonferroni
Procedure: (§1) HEK293 cells were kept at 37 °C and 5% CO2 in DMEM with 4.5 g/l glucose and GlutaMax-I (Gibco) supplemented with 10% (v/v) fetal bovine serum (Biochrom). Cells were split 1:10 to 1:20 twice a week.
For patch clamp experiments wild type HEK293 cells were transfected with expression vectors for either wild type TRPM2 or TRPM2 W1355A/I1368A 24 h before the experiments. To generate the transfection complex 2.5 μg of TRPM2 expression vector and 5 μl jetPEI reagent (PolyPlus Transfection, Strasbourg, France) were incubated for 30 min in a total volume of 250 μl (150 mM NaCl). Cells were detached from the culture bottle and adjusted to a density of 2.5 × 10^5 cells/ml. After addition of the transfection complex cells were seeded at low density to 35 mm cell culture dishes. Directly before the experiment the culture medium was replaced by bath solution (in mM: 140 N‑methyl‑D‑glucamine (NMDG), 5 KCl, 3.3 MgCl2, 1 CaCl2, 5 D‑glucose, 10 HEPES, adjusted to pH 7.4 with HCl). The replacement of Na^+ in the bath solution by NMDG (for which TRPM2 is impermeable) prevents cell rupture due to excessive current and the characteristic IV curve helps to distinguish activation of the nonselective cation channel from cells becoming leaky. […] The intracellular solution contains 200 nM free Ca^2+ (calculated using MaxChelator, http://maxchelator.stanford.edu/CaEGTA-NIST.htm). Whole cell currents were recorded using a HEKA EPC-10 amplifier and PatchMaster software (HEKA Elektronik, Lamprecht, Germany). To record TRPM2 activity, repetitive voltage ramps from −85 mV to +20 mV over 140 ms were applied every 5 s for 450 s. Before and in between ramps cells were clamped at −50 mV. Series resistance compensation was set to 70%. For temperature control the 35 mm dishes were placed inside an open culture dish incubator (DH-35i, Warner Instruments) connected to a single channel heater controller (TC-324C, Warner Instruments). Cells were continuously perfused at a flow rate of 0.3 ml/min with bath solution pre-warmed in a water bath.
For statistical analysis GraphPad Prism (v7.04 and v8.0.1; GraphPad Software) was used. Currents obtained from whole cell recordings tend to be positively skewed and were therefore log-transformed to achieve normality. After transformation all groups were normally distributed as assessed by D'Agostino & Pearson normality test. Data were tested by one-way ANOVA. p values from post-hoc comparisons between groups were adjusted for multiple comparison using Bonferroni correction. A significance level of α = 0.05 was adopted.

TRPM2 W1355A I1368A = assay: Whole cell patch-clamp, TRPM2 W1355A I1368A in HEK293 cells; assay type: cell-based, human
Procedure: as §1
The mutations W1355A and I1368A were inserted into the eukaryotic expression vector for TRPM2 (pIRES2-EGFP-TRPM2) by two sequential rounds of QuikChange mutagenesis using the following primer pairs: for W1355A: 5′-[…]-3′ and 5′-[…]-3′, for I1368A: 5′- […]-3′ and 5′-[…]-3′. The full open reading frame was confirmed by DNA sequencing (Eurofins MWG Operon, Ebersberg, Germany).
For patch clamp experiments wild type HEK293 cells were transfected with expression vectors for either wild type TRPM2 or TRPM2 W1355A/I1368A 24 h before the experiments. […] The intracellular solution contains 200 nM free Ca^2+ (calculated using MaxChelator, http://maxchelator.stanford.edu/CaEGTA-NIST.htm). Whole cell currents were recorded using a HEKA EPC-10 amplifier and PatchMaster software (HEKA Elektronik, Lamprecht, Germany). […]
For statistical analysis GraphPad Prism (v7.04 and v8.0.1; GraphPad Software) was used. […] After transformation all groups were normally distributed as assessed by D'Agostino & Pearson normality test. […]

TRPM2 = conditions: cited from earlier work
NudT9H domain = assay: Thermal unfolding of NudT9H by nDSF; assay type: binding, human; conditions: NudT9H with ADPR versus without
Procedure: The intrinsic fluorescence at 330 and 350 nm after excitation at 280 nm is used to monitor the fluorescence change upon heat unfolding. […] Buffer conditions were 25 mM Tris (pH 7.4), 150 mM NaCl, 2 mM CaCl2, 10% (v/v) glycerol. The first derivative of the unfolding curves was used to determine the transition midpoint. Simultaneously, protein aggregation was followed by light scattering.

[1] = room temperature, 100 μM agonist in pipette
[2] = wild-type TRPM2, 100 μM agonist in pipette, room temperature to 37 °C

## Adenosine diphosphate ribose [ADPR]
wild-type TRPM2; 100 μM agonist in pipette, room temperature to 37 °C, median values
  increase of current from room temperature to 37 °C: > 10 fold
wild-type TRPM2; 100 μM agonist in pipette
  whole cell current at 37 °C: 2.2 nA
wild-type TRPM2; [1]
  whole cell current at room temperature: 150 pA
wild-type TRPM2; [2]
  effect of raising temperature to 37 °C on current: significantly increased
TRPM2 W1355A I1368A; 100 μM agonist in pipette, room temperature to 37 °C, one-way ANOVA, Bonferroni
  effect of raising temperature to 37 °C on current: no significant increase
TRPM2; ref [20]
  TRPM2 agonism: activates the channel
TRPM2; removal of both intra- and extracellular Ca2+, ref [15]
  Ca2+ dependence of TRPM2 activation by ADPR: completely prevents activation of the channel by ADPR
TRPM2; temperatures >35 °C, ref [17]
  effect of temperature >35 °C on evoked TRPM2 current: significantly potentiates the current evoked by ADPR
NudT9H domain
  stabilizing effect on NudT9H: ruling out a stabilizing effect of ADPR on NudT9H

## Nc1ncnc2c1ncn2[C@H]1C[C@H](O)[C@@H](COP(=O)(O)OP(=O)(O)OC[C@H]2OC(O)[C@H](O)[C@@H]2O)O1 (some centres unmarked) [2′-deoxy-ADPR, 2′-deoxy-adenosine diphosphate (ADP)-ribose]
wild-type TRPM2; 100 μM agonist in pipette
  whole cell current at 37 °C: 1.4 nA
wild-type TRPM2; [1]
  whole cell current at room temperature: 4.5 nA
wild-type TRPM2; [2]
  effect of raising temperature to 37 °C on current: did not significantly increase
wild-type TRPM2; wild-type TRPM2, 100 μM in pipette, room temperature, compared with 100 μM ADPR
  current compared to ADPR: significantly higher at room temperature
TRPM2 W1355A I1368A; 100 μM in pipette, room temperature and 37 °C
  current compared to ADPR: did not significantly differ from that with ADPR
TRPM2; basal Ca2+ concentrations, ref [22]
  TRPM2 current compared with ADPR: elicits much higher TRPM2 currents than ADPR
TRPM2; ref [22]
  Ca2+ sensitivity of TRPM2 activation: less sensitive to Ca^2+

## ADP-ribose-2′-phosphate [2′-P-ADPR]
TRPM2; ref [21]
  TRPM2 agonism: acts as partial agonist
